We go through 8 compounds from patent US20240270762A1, “PENICILLIN-BINDING PROTEIN INHIBITORS” (priority 2021, published 2024).

In test [1] the target is T1, PBP3 from Acinetobacter baumannii (ATCC 19606) (Acinetobacter baumannii, UniProt A0ABX6CK25).
T1 sequence (A0ABX6CK25 64-610): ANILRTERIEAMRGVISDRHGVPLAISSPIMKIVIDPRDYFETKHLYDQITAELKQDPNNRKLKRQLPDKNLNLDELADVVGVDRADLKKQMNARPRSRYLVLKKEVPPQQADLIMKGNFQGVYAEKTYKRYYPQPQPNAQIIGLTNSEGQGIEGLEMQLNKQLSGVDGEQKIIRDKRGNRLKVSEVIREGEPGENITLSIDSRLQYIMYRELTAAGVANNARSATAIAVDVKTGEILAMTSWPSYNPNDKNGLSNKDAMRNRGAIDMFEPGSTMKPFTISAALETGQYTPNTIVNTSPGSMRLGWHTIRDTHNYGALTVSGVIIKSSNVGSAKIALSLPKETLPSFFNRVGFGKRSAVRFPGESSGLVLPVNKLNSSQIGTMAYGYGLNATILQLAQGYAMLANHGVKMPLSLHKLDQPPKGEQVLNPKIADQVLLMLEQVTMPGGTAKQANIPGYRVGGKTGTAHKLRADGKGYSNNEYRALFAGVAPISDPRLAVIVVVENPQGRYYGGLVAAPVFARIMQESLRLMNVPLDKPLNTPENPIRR
Briefly: Bocillin-FL fluorescence polarization competition binding, A. baumannii PBP3. The note with it: fluorescence polarization competition binding assay using Bocillin-FL; read-out: A. baumannii PBP3 Potency. The gist of the method: (§1)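 Purified PBPs pre-incubated with inhibitor (E. coli PBP3 1.5 μM, 30 min; P. aeruginosa PBP3 0.75 μM, A. baumannii PBP1a 1 μM and PBP3 0.2 μM, 15 min), then Bocillin-FL 0.1 μM (0.05 μM for PBP1a) added; FP read up to 60 min. EC50 = concentration halving bound Bocillin-FL.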
(In fluorescence polarisation assays a small probe gives low polarisation when free and higher when bound to something large.)

A further test has as its system P. aeruginosa CDC-0110. In words: microbe, parasite or virus in culture. It counts as cell-based. The following applies: Pseudomonas aeruginosa, CDC0110, read-out: Minimum inhibitory concentration, P. aeruginosa CDC-0110.
The target in test [2] is T2, PBP3 from Pseudomonas aeruginosa (PAO1) (Pseudomonas aeruginosa, UniProt G3XD46).
T2 construct: made in house
In words: Bocillin-FL fluorescence polarization competition binding, P. aeruginosa PBP3. The following applies: Binding affinity to P. aeruginosa PBP3; fluorescence polarization competition binding assay using Bocillin-FL; read-out: P. aeruginosa PBP3 Potency. A digest of the protocol: as §1

Test [3] has as its system P. aeruginosa (ΔmexAB-oprM). Briefly: Broth microdilution MIC in iron-depleted CAMHB (IDM). It counts as cell-based. The following applies: Pseudomonas aeruginosa; iron-depleted CAMHB (IDM); […]; read-out: Minimum inhibitory concentration, P. aeruginosa ΔmexAB-oprM. (In general: Dilution methods test growth across graded concentrations, often in twofold steps.)
Another test deals with P. aeruginosa CDC-0054. In words: microbe, parasite or virus in culture. It counts as cell-based. The note with it: Pseudomonas aeruginosa, CDC0054, read-out: Minimum inhibitory concentration, P. aeruginosa CDC-0054.
The next test has as its system P. aeruginosa CDC-0095. Briefly: microbe, parasite or virus in culture. It counts as cell-based. The note with it: Pseudomonas aeruginosa, CDC0095, read-out: Minimum inhibitory concentration, P. aeruginosa CDC-0095.
In the next test the test system is A. baumannii ATCC 17978. In words: microbe, parasite or virus in culture. It counts as cell-based. The following applies: Acinetobacter baumannii.
For another test, the system named is A. baumannii 1258916. Briefly: microbe, parasite or virus in culture. It counts as cell-based, Acinetobacter baumannii.
Test [4] deals with B. thailandensis ATCC 700388. In words: microbe, parasite or virus in culture. It counts as cell-based. The note with it: Burkholderia thailandensis, ATCC700388, read-out: Minimum inhibitory concentration (MIC), B. thailandensis ATCC 700388.
The subject of another test is P. aeruginosa CDC-0090. Briefly: microbe, parasite or virus in culture. It counts as cell-based. The following applies: Pseudomonas aeruginosa, CDC0090, read-out: Minimum inhibitory concentration, P. aeruginosa CDC-0090.
[5] abbreviates: ATCC17978, read-out: Minimum inhibitory concentration (MIC), A. baumannii ATCC 17978.
[6] abbreviates: Acinetobacter baumannii, 1258916, read-out: Minimum inhibitory concentration (MIC), A. baumannii 1258916.

Values after ≈ are worked out from the molar mass of the structure shown. Like-named read-outs stand apart in the source and are kept apart here.

T2 sequence (G3XD46 whole entry): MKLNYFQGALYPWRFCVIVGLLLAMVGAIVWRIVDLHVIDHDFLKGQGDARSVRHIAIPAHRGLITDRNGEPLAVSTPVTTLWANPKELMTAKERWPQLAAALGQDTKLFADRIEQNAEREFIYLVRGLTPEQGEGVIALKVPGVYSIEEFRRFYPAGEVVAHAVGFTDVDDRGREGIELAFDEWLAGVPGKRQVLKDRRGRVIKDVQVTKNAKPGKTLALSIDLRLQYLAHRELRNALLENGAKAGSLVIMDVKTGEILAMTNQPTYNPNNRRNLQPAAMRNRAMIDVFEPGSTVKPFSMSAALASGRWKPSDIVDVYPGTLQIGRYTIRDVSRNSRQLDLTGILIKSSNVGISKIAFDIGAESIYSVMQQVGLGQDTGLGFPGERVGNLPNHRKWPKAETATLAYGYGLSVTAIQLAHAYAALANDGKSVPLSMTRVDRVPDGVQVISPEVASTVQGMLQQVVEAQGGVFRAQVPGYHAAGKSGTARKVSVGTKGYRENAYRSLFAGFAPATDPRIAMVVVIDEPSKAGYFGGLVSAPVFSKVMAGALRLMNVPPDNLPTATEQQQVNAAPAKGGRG

As to `O=C(O)c1c(F)ccc2c1OB(O)[C@@H](NC(=O)[C@@H](NC(=O)N1CCN(C3CCN(C(=O)c4ccc(O)cc4)CC3)C1=O)c1cc(F)c(O)c(O)c1Cl)C2` (single isomer, unassigned) [Example 462], the IC50 in [1] was below 10 µM; in test [2], 10 to 50 µM. The MIC in the test with P. aeruginosa CDC-0110 is 8 to 16 µg/mL (≈ 10.6 to 21.1 µM); in test [3], 2 to 4 µg/mL (≈ 2.64 to 5.28 µM); with P. aeruginosa CDC-0054 it was 8 to 16 µg/mL (≈ 10.6 to 21.1 µM); with P. aeruginosa CDC-0095 it was 32 to 64 µg/mL (≈ 42.2 to 84.4 µM); with A. baumannii ATCC 17978 (ATCC17978, read-out: MIC, A. baumannii ATCC 17978), below 1 µg/mL; in the test on A. baumannii 1258916 (Acinetobacter baumannii, 1258916, read-out: MIC, A. baumannii 1258916), 32 to 64 µg/mL (≈ 42.2 to 84.4 µM). Moreover, the MIC in test [4] was above 128 µg/mL.
On to `O=C(O)c1c(F)ccc2c1OB(O)[C@@H](NC(=O)C(NC(=O)N1CCN(C3CCN(C(=O)Nc4c(F)ccc(O)c4F)CC3)C(=O)C1=O)c1cc(F)c(O)c(O)c1Cl)C2` (stereo partly drawn) [Example 487, (3R)-3-(2-(2-chloro-5-fluoro-3,4-dihydroxyphenyl)-2-(4-(1-((2,6-difluoro-3-hydroxyphenyl)carbamoyl)piperidin-4-yl)-2,3-dioxopiperazine-1-carboxamido)acetamido)-7-fluoro-2-hydroxy-3,4-dihydro-2H-benzo[e][1,2]oxaborinine-8-carboxylic acid], for which the IC50 in test [1] and in test [2] was below 10 µM each time. The MIC with P. aeruginosa CDC-0090 is 2 to 4 µg/mL (≈ 2.39 to 4.78 µM); in test [3], below 1 µg/mL; in the test on P. aeruginosa CDC-0054, below 1 µg/mL; with P. aeruginosa CDC-0095 it was below 1 µg/mL; in the test on A. baumannii ATCC 17978 (setting [5]) it was below 1 µg/mL; in the test on A. baumannii 1258916 (setting [6]), below 1 µg/mL. Further, in test [4], the MIC was below 1 µg/mL.
For the compound `O=C(O)c1c(F)ccc2c1OB(O)[C@@H](NC(=O)C(NC(=O)N1CCN(C3CCN(C(=O)Nc4cc(O)c(F)c(F)c4)CC3)C(=O)C1=O)c1cc(F)c(O)c(O)c1Cl)C2` (stereo partly drawn) [Example 488, (3R)-3-(2-(2-chloro-5-fluoro-3,4-dihydroxyphenyl)-2-(4-(1-((3,4-difluoro-5-hydroxyphenyl)carbamoyl)piperidin-4-yl)-2,3-dioxopiperazine-1-carboxamido)acetamido)-7-fluoro-2-hydroxy-3,4-dihydro-2H-benzo[e][1,2]oxaborinine-8-carboxylic acid], the IC50 in test [1] and in test [2] was below 10 µM each time. In addition, the MIC in the test with P. aeruginosa CDC-0090 is below 1 µg/mL; in test [3], below 1 µg/mL; with P. aeruginosa CDC-0054, below 1 µg/mL; with P. aeruginosa CDC-0095 it was 2 to 4 µg/mL (≈ 2.39 to 4.78 µM); with A. baumannii ATCC 17978 (setting [5]), below 1 µg/mL; in the test on A. baumannii 1258916 (setting [6]) it was below 1 µg/mL. The MIC in test [4] was 8 to 16 µg/mL (≈ 9.56 to 19.1 µM).
Consider `O=C(O)c1c(F)ccc2c1OB(O)[C@@H](NC(=O)C(NC(=O)N1CCN(C3CCN(C(=O)Nc4ccc(Cl)c(O)c4F)CC3)C(=O)C1=O)c1cc(F)c(O)c(O)c1Cl)C2` (stereo partly drawn) [Example 489, (3R)-3-(2-(4-(1-((4-chloro-2-fluoro-3-hydroxyphenyl)carbamoyl)piperidin-4-yl)-2,3-dioxopiperazine-1-carboxamido)-2-(2-chloro-5-fluoro-3,4-dihydroxyphenyl)acetamido)-7-fluoro-2-hydroxy-3,4-dihydro-2H-benzo[e][1,2]oxaborinine-8-carboxylic acid], for which the IC50 in test [1] and in test [2] was below 10 µM each time. The MIC is 2 to 4 µg/mL (≈ 2.34 to 4.69 µM) with P. aeruginosa CDC-0090; below 1 µg/mL in test [3]; below 1 µg/mL in the test with P. aeruginosa CDC-0054; below 1 µg/mL in the test with P. aeruginosa CDC-0095; below 1 µg/mL in the test with A. baumannii ATCC 17978 (setting [5]); below 1 µg/mL in the test with A. baumannii 1258916 (setting [6]). Further, the MIC in test [4] was 2 to 4 µg/mL (≈ 2.34 to 4.69 µM).
On to `O=C(O)c1c(F)ccc2c1OB(O)[C@@H](NC(=O)C(NC(=O)N1CCN(C3CCN(C(=O)Nc4cc(O)c(F)cc4Cl)CC3)C(=O)C1=O)c1cc(F)c(O)c(O)c1Cl)C2` (stereo partly drawn) [Example 490, (3R)-3-(2-(4-(1-((2-chloro-4-fluoro-5-hydroxyphenyl)carbamoyl)piperidin-4-yl)-2,3-dioxopiperazine-1-carboxamido)-2-(2-chloro-5-fluoro-3,4-dihydroxyphenyl)acetamido)-7-fluoro-2-hydroxy-3,4-dihydro-2H-benzo[e][1,2]oxaborinine-8-carboxylic acid], for which the IC50 in test [1] and in [2] was below 10 µM in each case. For the same compound, the MIC in the test with P. aeruginosa CDC-0090 was 2 to 4 µg/mL (≈ 2.34 to 4.69 µM); in test [3] it was below 1 µg/mL; in the test on P. aeruginosa CDC-0054, 8 to 16 µg/mL (≈ 9.37 to 18.7 µM); in the test on P. aeruginosa CDC-0095, 2 to 4 µg/mL (≈ 2.34 to 4.69 µM); in the test with A. baumannii ATCC 17978 (setting [5]), below 1 µg/mL; in the test with A. baumannii 1258916 (setting [6]) it was 2 to 4 µg/mL (≈ 2.34 to 4.69 µM). For the same compound, the MIC in [4] lay within 32 to 64 µg/mL (≈ 37.5 to 75 µM).
In the case of `O=C(O)c1c(F)ccc2c1OB(O)[C@@H](NC(=O)[C@H](NC(=O)N1CCN(C3CCN(C(=O)Nc4cc(F)c(F)c(O)c4F)CC3)C(=O)C1=O)c1cc(F)c(O)c(O)c1Cl)C2` [Example 491, (R)-3-((R)-2-(2-chloro-5-fluoro-3,4-dihydroxyphenyl)-2-(2,3-dioxo-4-(1-((2,4,5-trifluoro-3-hydroxyphenyl)carbamoyl)piperidin-4-yl)piperazine-1-carboxamido)acetamido)-7-fluoro-2-hydroxy-3,4-dihydro-2H-benzo[e][1,2]oxaborinine-8-carboxylic acid], the IC50 in test [1] and in test [2] was below 10 µM each time. Further, the MIC in the test on P. aeruginosa CDC-0090 is 2 to 4 µg/mL (≈ 2.34 to 4.68 µM); in test [3], below 1 µg/mL; with P. aeruginosa CDC-0054, below 1 µg/mL; with P. aeruginosa CDC-0095, 2 to 4 µg/mL (≈ 2.34 to 4.68 µM); in the test with A. baumannii ATCC 17978 (setting [5]), below 1 µg/mL; in the test with A. baumannii 1258916 (setting [6]) it was below 1 µg/mL. Moreover, the MIC in test [4] is 2 to 4 µg/mL (≈ 2.34 to 4.68 µM).
As to `O=C(O)c1c(F)ccc2c1OB(O)[C@@H](NC(=O)[C@H](NC(=O)N1CCN(C3CCN(Cc4cccnc4)CC3)C1=O)c1cc(F)c(O)c(O)c1Cl)C2` [Example 492, (R)-3-((R)-2-(2-chloro-5-fluoro-3,4-dihydroxyphenyl)-2-(2-oxo-3-(1-(pyridin-3-ylmethyl)piperidin-4-yl)imidazolidine-1-carboxamido)acetamido)-7-fluoro-2-hydroxy-3,4-dihydro-2H-benzo[e][1,2]oxaborinine-8-carboxylic acid], the IC50 in test [1] and in test [2] was below 10 µM each time. Further, the MIC in the test on P. aeruginosa CDC-0090 is below 1 µg/mL; in test [3], below 1 µg/mL; in the test on P. aeruginosa CDC-0054, below 1 µg/mL; in the test on P. aeruginosa CDC-0095, 2 to 4 µg/mL (≈ 2.74 to 5.49 µM); in the test with A. baumannii ATCC 17978 (setting [5]) it was below 1 µg/mL; with A. baumannii 1258916 (setting [6]) it was below 1 µg/mL. In [4], the MIC was below 1 µg/mL.
As for `O=C(O)c1c(F)ccc2c1OB(O)[C@@H](NC(=O)[C@H](NC(=O)N1CCN(C3CCN(Cc4ccncc4)CC3)C1=O)c1cc(F)c(O)c(O)c1Cl)C2` [Example 493, (R)-3-((R)-2-(2-chloro-5-fluoro-3,4-dihydroxyphenyl)-2-(2-oxo-3-(1-(pyridin-4-ylmethyl)piperidin-4-yl)imidazolidine-1-carboxamido)acetamido)-7-fluoro-2-hydroxy-3,4-dihydro-2H-benzo[e][1,2]oxaborinine-8-carboxylic acid], the IC50 in test [1] and in test [2] was below 10 µM in each case. Further, the MIC in the test with P. aeruginosa CDC-0090 was below 1 µg/mL; in test [3], below 1 µg/mL; in the test with P. aeruginosa CDC-0054, 2 to 4 µg/mL (≈ 2.74 to 5.49 µM); with P. aeruginosa CDC-0095 it was below 1 µg/mL; in the test with A. baumannii ATCC 17978 (setting [5]), below 1 µg/mL; in the test on A. baumannii 1258916 (setting [6]), below 1 µg/mL. In test [4], the MIC is below 1 µg/mL.
